Measurements taken from patent US5686485A, “Physiologically active EI-1941 compounds” (Kyowa Hakko Kogyo Co., Ltd., priority 1995, dated 1997).

Assays:
[1] = system: production of IL-1β by human monocyte-derived THP-1 cells; assay: Inhibitory activity against the production of IL-1β by human monocyte-derived THP-1 cells (LPS-stimulated, ELISA); type: cell-based; settings: THP-1 cells differentiated with PMA 30 nM, 65 h, LPS 25 μg/ml, 4 hours, serum-free RPMI1640, test compound 0.05-50 μg/ml, read-out: IC50 (50% inhibitory concentration), IL-1 production inhibition
Procedure: The inhibitory activity of EI-1941 compounds against the production of IL-1β by human monocyte-derived THP-1 cells (ATCC No. TIB 202) was examined in the following manner. The amount of IL-1β was determined by the ELISA method.
THP-1 cells were suspended in RPMI1640 medium (Nissui Pharmaceutical Co., Ltd.) containing 10% inactivated fetal calf serum at a concentration of 1×10^5 cells/ml. The cell suspension was put into wells of a 24-well plate in an amount of 1 ml/well. Phorbol 12-myristate 13-acetate (PMA, final concentration: 30 nM) was added to the wells, followed by incubation in a 5% CO2 -incubator at 37° C. for 65 hours to differentiate the cells into macrophage.
Then, the plate was gently washed with serum-free RPMI1640 medium to remove the cells which were not adhered to the wells, and the residue was cultured for 4 hours in serum-free RPMI1640 medium (1 ml/well) containing lipopolysaccharide (LPS, final concentration: 25 μg/ml) and a test compound (final concentration: 0.05-50 μg/ml).
After the completion of culturing, the amount of IL-1β released into the culture supernatant was determined by using an IL-1β determination kit (Amersham Corp.).
The IL-1 production inhibition rate was calculated according to the following equation to obtain IC50 (50% inhibitory concentration).
IL-1 production inhibition rate (%)=(A-B)/(A-C)×100
A: Amount of IL-1 produced when only LPS is added […]

[2] = Solubility; type: physicochemical; settings: in methanol and acetonitrile

IC50 [1] [µM]	Compound	Solubility [2]
1	CCCC1CC2=C(C(O)O1)C(O)C1OC1C2=O (centres unmarked) [EI-1941-1]	Readily soluble in methanol and acetonitrile
2.2	CCCC1CC2=C(C(=O)O1)C(O)C1OC1C2=O (centres unmarked) [EI-1941-2]	Readily soluble in methanol and acetonitrile
	CCCC1CC2=C(C(=O)O1)C(O)C(O)CC2=O (centres unmarked) [EI-1941-3]	Readily soluble in methanol and acetonitrile
